The results in this text go back to patent publication US20020151553A1, “Chemokine receptor antagonists and methods of use therefor” (Millennium Pharmaceuticals, Inc., priority 1996, published 2002).

For one assay, the target named is T1, chemokine receptor (RANTES / MIP-1α binding) on THP-1 cell membranes (Homo sapiens, UniProt P32246).
T1 sequence (P32246 1-355): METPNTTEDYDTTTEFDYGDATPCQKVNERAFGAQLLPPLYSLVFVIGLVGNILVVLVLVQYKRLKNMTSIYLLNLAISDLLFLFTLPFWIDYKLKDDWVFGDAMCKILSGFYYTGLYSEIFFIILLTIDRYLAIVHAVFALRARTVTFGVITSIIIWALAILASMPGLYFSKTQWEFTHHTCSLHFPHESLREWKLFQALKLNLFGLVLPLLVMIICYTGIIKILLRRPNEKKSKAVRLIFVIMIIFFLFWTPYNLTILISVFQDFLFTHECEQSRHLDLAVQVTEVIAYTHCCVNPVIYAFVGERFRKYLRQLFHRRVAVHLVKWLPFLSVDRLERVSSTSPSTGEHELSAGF
As to the kind of experiment: Receptor binding assay with 125I-RANTES or 125I-MIP-1α as ligand and THP-1 cell membranes.
Details: not given
On the procedure:
Membranes were prepared from THP-1 cells (ATCC #TIB202). Cells were harvested by centrifugation, washed twice with PBS (phosphate-buffered saline), and the cell pellets were frozen at −70 to −85° C. […] This procedure results in cell lysis. The suspension was mixed well to resuspend all of the frozen cell pellet. Nuclei and cell debris were removed by centrifugation of 400× g for 10 minutes at 4° C. The supernatant was transferred to a fresh tube and the membrane fragments were collected by centrifugation at 25,000× g for 30 minutes at 4° C. The supernatant was aspirated and the pellet was resuspended in freezing buffer consisting of 10 mM HEPES pH 7.5, 300 mM sucrose, 1 μg/ml each aprotinin, leupeptin, and chymostatin, and 10 μg/ml PMSF approximately 0.1 ml per each 10^8 cells). All clumps were resolved using a minihomogenizer, and the total protein concentration was determined using a protein assay kit (Bio-Rad, Hercules, Calif., cat #500-0002). The membrane solution was then aliquoted and frozen at −70 to −85° C. until needed. Binding Assays utilized the membranes described above.
Consider `N#CC1(CCCN2CCC(O)(c3ccc(Cl)cc3)CC2)c2ccccc2C[S+]([O-])c2ccccc21` (single isomer, unassigned) [Example 14, 4-(4-Chlorophenyl)-1-[3-(11-cyano-6,11-dihydro-5-oxodibenzo[b,e]thiepin-11-yl)propyl]piperidin-4-ol], for which the IC50 was found to be 0.28 µM.
For the molecule `O=C(NCC1(CCCN2CCC(O)(c3ccc(Cl)cc3)CC2)c2ccccc2CSc2ccccc21)Oc1ccccc1` (centres unmarked) [Example 22], the IC50 was 0.69 µM.
Regarding `N#CC1(CCCN2CCC(O)(c3ccc(Cl)cc3)CC2)c2ccccc2CSc2ccccc21` (centres unmarked) [Example 10, 4-(4-Chlorophenyl)-1-[3-(11-cyano-6,11-dihydrodibenzo[b,e]thiepin-11-yl)propyl] piperidin-4-ol], the IC50 amounted to 0.097 µM.
On to `N#CC1(CCCN2CCC(O)(c3ccc(Cl)cc3)CC2)c2ccccc2CCc2ccccc21` [Example 2, 4-(4-Chlorophenyl)-1-[3-(5-cyano-10,11-dihydro-5H-dibenzo[a,d]cycloheptene-5-yl)propyl]piperidin-4-ol], for which the IC50 is 0.052 µM.
Same read-out and setting: the value for `O=C(CCN1CCC(O)(c2ccc(Cl)cc2)CC1)C1c2ccccc2CCc2ccccc21` [Example 24, 4-(4-Chlorophenyl)-1-[3-(10,11-dihydro-5H-dibenzo[a,d]cycloheptene-5-yl)-3-propioyl]piperidin-4-ol] was 0.16 µM; that for `N#CC1(CCCN2CCC(O)(c3ccc(Cl)cc3)CC2)c2ccccc2C[S+]([O-])c2ccccc21` (single isomer, unassigned) [Example 15, 4-(4-Chlorophenyl)-1-[3-(11-cyano-6,11-dihydro-5-oxodibenzo[b,e]thiepin-11-yl)propyl]piperidin-4-ol] was 0.61 µM.

Still in this assay, the particulars now being: 125I-RANTES or 125I-MIP-1α as ligand; THP-1 cell membranes; 60 min at room temperature; read-out: IC50 (inhibitor concentration required for 50% inhibition of specific binding).
In the case of “1-[2-[3-[4-(4-chlorophenyl)-4-hydroxypiperidino]propyl]-2-(6,11-dihydrodibenzo[b,e]thiepi n-11-yl)ethyl]-3-(hydroxypropyl)urea [Example 23]”, the IC50 was 2.2 µM.
On to `N#CC1(CCCN2CCC(O)(c3ccc(Cl)cc3)CC2)c2ccccc2COc2ccc(Br)cc21` (centres unmarked) [Example 6, 1-[3-(2-Bromo-11-cyano-6,11-dihydrodibenz[b,e]oxepin-11-yl)propyl]-4-(4-chlorophenyl)piperidin-4-ol], for which the IC50 was 0.3 µM.
Regarding `N#CC1(CCCN2CCC(O)(c3ccc(F)cc3)CC2)c2ccccc2COc2ccccc21` (centres unmarked) [Example 4, 1-[3-(11-Cyano-6,11-dihydrodibenz[b,e]oxepin-11-yl)propyl]-4-(4-fluorophenyl)piperidin-4-ol], the IC50 was 0.39 µM.
Same read-out and setting: with `N#CC1(CCCN2CCC(O)(c3ccc(Cl)cc3)CC2)c2ccccc2CSc2ccc(Br)cc21` (centres unmarked) [Example 13, 1-[3-(2-Bromo-11-cyano-6,11-dihydrodibenzo[b,e]thiepin-11-yl)propyl]-4-(4-chlorophenyl)piperidin-4-ol] the figure was 0.38 µM.
On the same count and under the same terms, the value for `OC1(c2ccc(Cl)cc2)CCN(CCCC2c3ccccc3CSc3ccccc32)CC1` (centres unmarked) [Example 17, 4-(4-Chlorophenyl)-1-[3-(6,11-dihydrodibenzo[b,e]thiepin-11-yl)propyl]piperidin-4-ol] was 0.07 µM; that for `N#CC1(CCCN2CCC(O)(c3ccccc3)CC2)c2ccccc2CSc2ccccc21` (centres unmarked) [Example 11, 1-[3-(1l-Cyano-6,11-dihydrodibenzo[b,e]thiepin-11-yl)propyl]-4-phenylpiperidin-4-ol] was 11 µM; that for `N#CC1(CCCN2CCC(O)(c3ccc(Br)cc3)CC2)c2ccccc2CSc2ccccc21` (centres unmarked) [Example 12, 4-(4-Bromophenyl)-1-[3-(11-cyano-6,11-dihydrodibenzo[b,e]thiepin-11-yl)propyl]piperidi n-4-ol] was 0.099 µM.
As to `Cc1ccc2c(c1)C(C#N)(CCCN1CCC(O)(c3ccc(Cl)cc3)CC1)c1ccccc1CO2` (centres unmarked) [Example 7, 4-(4-Chlorophenyl)-1-[3-(11-cyano-6,11-dihydro-2-methyldibenz[b,e]oxepin-11-yl)propyl]piperidin-4-ol], the IC50 came to 0.38 µM.
With `OC1(c2ccc(Cl)cc2)CCN(CCCC2c3ccccc3CCc3ccccc32)CC1` [Example 18, 4-(4-Chlorophenyl)-1-[3-(10,11-dihydro-5H-dibenzo[a,d]cycloheptene-5-yl)propyl]piperidin-4-ol], the IC50 stood at 0.055 µM.
Still for that read-out and setting: with `N#CC1(CCCN2CCC(O)(c3ccc(Cl)cc3)CC2)c2ccccc2CS(=O)(=O)c2ccccc21` (centres unmarked) [Example 16, 4-(4-Chlorophenyl)-1-[3-(11-cyano-6,11-dihydro-5,5-dioxodibenzo[b,e]thiepin-11-yl)propyl]piperidin-4-ol] the figure was 0.079 µM.
Consider `N#CC1(CCCN2CCC(O)(c3ccc(Cl)cc3)CC2)c2ccccc2COc2ccccc21` (centres unmarked) [Example 3, 4-(4-Chlorophenyl)-1-[3-(11-cyano-6,11-dihydrodibenz[b,e]oxepin-11-yl)propyl]piperidin-4-ol], for which the IC50 turned out to be 0.11 µM.
The same measure, in the same setting: the value for `OC1(c2ccc(Cl)cc2)CCN(CCCC2c3ccccc3COc3ccccc32)CC1` (centres unmarked) [Example 19, 4-(4-Chlorophenyl)-1-[3-(6,11-dihydrodibenz[b,e]oxepin-11-yl)propyl]piperidin-4-ol] was 0.059 µM.
Still for that read-out and setting: with `N#CC1(CCCN2CCC(O)(c3ccc(Cl)cc3)CC2)c2ccccc2C=Cc2ccccc21` [Example 1, 4-(4-Chlorophenyl)1-[3-(5-cyano-5H-dibenzo[a,d]cycloheptene-5-yl)propyl]piperidin-4-ol] the figure was 0.088 µM; with `N#CC1(CCCN2CCC(O)(c3ccc(Cl)cc3)CC2)c2ccccc2COc2ccc(F)cc21` (centres unmarked) [Example 5, 4-(4-Chlorophenyl)-1-[3-(11-cyano-6,11-dihydro-2-fluorodibenz[b,e]oxepin-11-yl)propyl]piperidin-4-ol], 0.19 µM.
